# US20250008959A1, “HERBICIDES AND USE THEREOF” (Projini Agchem LTD, priority 2021, published 2025)
# Key:
# [1] = molecular target: T1, AtOASS (O-acetyl serine sulfhydrylase from Arabidopsis thaliana) (Arabidopsis thaliana, UniProt P47998); experiment: Isothermal titration calorimetry (ITC) binding to OASS; conditions: for Kd: OASS titrated into compound in ITC cell, single binding model
# T1 construct: GST (N, cleaved yes); made in house; host or cells: E. coli Rosetta (DE3)
# Text: To evaluate the ability of the molecules to bind AtOASS (O-acetyl serine sulfhydrylase from Arabidopsis thaliana), the protein was placed in the ITC syringe and was titrated with the molecules that were placed in the ITC cell (see Examples section below). The direct dissociation binding constant (Kd) was then extracted from the binding curve using a single binding model, wherein a low Kd value corresponds to a stronger binding affinity.
# To evaluate the binding of the small molecules to the enzyme OASS, the purified protein was placed in a 6-8 MWCO dialysis bag in 30 mM phosphate buffer, 30 mM NaCl, 1 mM TCEP, and 5% dimethyl sulfoxide. Sequential buffer exchange dialyses were executed for 12 hours each at 4° C. until dilution of >10,000 was achieved. Before the execution of the ITC binding experiment, the OASS was placed in the ITC syringe at a concentration of 400 μM and each of the small molecules was dissolved in the same dialysis buffer to a final concentration of 40 μM in the ITC cell. ITC experiments were conducted by titrating the OASS to the compounds in the cell. The ITC binding constant was evaluated using the build-in analysis software.
# The designed de-novo herbicidal compounds were synthesized and evaluated for their in vitro and in planta activity. After dissolving the molecules to a stock of 50 mM in DMSO, binding and competition with the SAT-derived peptides were evaluated using ITC and FP. ITC measures the direct heat change occurring due to the interaction of a pair of molecules. ITC has certain advantages, such as the capability to detect a relatively broad range of binding affinities, being a label-free method, and providing a wide set of interaction parameters, such as affinity, stoichiometry, enthalpy, and entropy of binding. To evaluate the ability of the molecules to bind AtOASS, the protein was placed in the ITC syringe and was titrated with the molecules that were placed in the ITC cell. The direct dissociation binding constant (Kd) was then extracted from the binding curve using a single binding model. Two consecutive experiments were combined using the built in ITC module to enable better quantification. A low Kd value corresponds to a stronger binding affinity.
# [2] = molecular target: T2, OASS-SAT complex (AtOASS with SAT-derived peptide) (Arabidopsis thaliana, UniProt P47998); experiment: Fluorescence polarization (FP) competition with FITC-labeled SAT-derived peptide bound to OASS; format: binding; conditions: competition with FITC-SAT peptide 200 nM, OASS 2.2 μM; for IC50: single site inhibition model
# T2 construct: GST (N, cleaved yes); made in house; host or cells: E. coli Rosetta (DE3)
# T2 sequence (P47998 whole entry, one chain of several): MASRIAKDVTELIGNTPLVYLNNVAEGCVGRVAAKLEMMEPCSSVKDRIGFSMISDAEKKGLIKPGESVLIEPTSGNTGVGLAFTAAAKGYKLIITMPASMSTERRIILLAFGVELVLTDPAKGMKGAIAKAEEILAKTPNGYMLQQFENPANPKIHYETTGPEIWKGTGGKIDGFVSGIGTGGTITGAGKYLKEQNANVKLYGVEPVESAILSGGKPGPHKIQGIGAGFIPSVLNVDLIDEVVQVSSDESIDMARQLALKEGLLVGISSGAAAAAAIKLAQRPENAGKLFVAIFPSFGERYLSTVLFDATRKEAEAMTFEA
# Method: Molecules were also tested for their ability to compete with the OASS binding to the SAT-derived peptide via a fluorescence polarization (FP) competition assay wherein the N-terminus labeled peptide was incubated with the AtOASS (see Examples section below). High FP values correspond to the peptide-bound state (low molecule concentrations) and low FP values correspond to the peptide-free state (low FP values). To extract the IC50, the FP data were fitted to a single site inhibition model in PRISM by GraphPad Software. The corresponding IC50 values were extracted, whereas low IC50 values correspond to molecule that better competes with the peptide binding to AtOASS. Fluorescence polarization (FP) measurements were made on samples arrayed in 96-well plates by using BioTek H1 Synergy instrument equipped with FP module. […] The peptide in a concentration of 200 nM was incubated with OASS at a concentration of 2.2 μM in each well. Variable concentrations of each molecule starting from 100 μM down to 0.048 μM were added to evaluate the ability of each molecule to compete off the FITC labeled peptide bound to OASS. Fluorescence experiments were executed with an Em/Exc wavelengths of 480/520 nm. All measurements were done in triplicate. Experimental polarization data from simple and competitive binding experiments were fitted using GraphPad Prism, with error bars representing SD. Molecules were also tested for their ability to compete with the OASS binding to the SAT-derived peptide via a fluorescence polarization (FP) competition assay. The N-terminus labeled peptide was incubated with the AtOASS in each of the wells in a 96-well plate. Various concentrations of the molecules were added and the FP values were recorded. High FP values correspond to the peptide-bound state (low molecule concentrations) and low FP values correspond to the peptide-free state (low FP values). To extract the IC50, the FP data were fitted to a single site inhibition model in graphpad prism. The corresponding IC50 values were extracted. Low IC50 values correspond to molecule that better competes with the peptide binding to AtOASS.
# Arabidopsis thaliana = experiment: Root elongation in plates (in planta root elongation assay); format: in vivo; conditions: 168 h, A. thaliana on MS medium plates, 7 days, read-out: Root-growth inhibition %
# Method: 6-well plates were prepared in a biological hood with sterile half Murashige and Skoog mineral medium (MS; Duchefa, Haarlem, Netherlands) containing 1% sucrose (w/v), pH 5.8. Tested molecules were dissolved in 50 mM DMSO and diluted to various concentrations 1,000-fold greater than the final desired concentration the MS medium maintaining a final concentration of 0.1% DMSO. MS medium with 0.1% DMSO was used as a negative control. After 7 days the plates were scanned and the root length was calculated using the imageJ software. […] Further sterilization was done by washing the seeds with 50% hypochlorite and 0.2% Triton x-100 for 10 minutes followed by five cycles of washing with sterile water. Six seeds were placed in each well, and the plates were covered and sealed with parafilm. Plates were placed vertically at 4° C. for two days and then transferred to a growth chamber for seven days (22-24° C.) at day/light cycles of 16/8 hours. Following the in vitro evaluation, selected molecules were tested for their ability to inhibit A. thaliana root elongation on agar plates. Seeds were plated on medium containing the molecules dissolved in the indicated concentrations and root length was measured after 6 or 7 days when the root in the non-treated plate reached the end of the well.
# T1 sequence (P47998 whole entry): as the sequence (P47998 whole entry, one chain of several) above
SMILES,Kd [1],FP % inhibition [2],IC50 [2],direct binding to AtOASS by ITC (in vitro screening of purchased virtual hits) ([1]; result in words),inhibition at 50 µM (Arabidopsis thaliana)
COc1ccc(C(=O)O)c(-c2ccccc2C(=O)Nc2nc(-c3ccc(Cl)cc3Cl)cs2)c1 [PJL-118],2.3 µM,43%,5.99 µM,–,47%
Cc1cc2cc(NS(=O)(=O)c3cc(C(=O)O)cc4c3CCC4)ccc2[nH]1 [PJL-22],–,13%,206 µM,–,0%
O=C(Cc1ccccc1C(=O)O)Nc1cc(C(=O)Nc2cccnc2)ccc1F [PJL-91],–,13%,55 µM,–,–
COc1ccc(C(=O)O)c(NS(=O)(=O)c2cnn(-c3ccc(F)cc3)c2)c1 [PJL-121],–,4.6%,322 µM,–,72%
O=C(O)c1ccc(O)cc1NS(=O)(=O)c1cnc(-c2ccccc2)o1 [PJL-82],–,11%,150 µM,–,0%
CC(C)CNC(=O)c1cccc(NC(=O)c2ccccc2-c2ccccc2C(=O)O)c1 [PJS-120],–,–,–,showed direct binding to AtOASS by ITC,–
Nc1cc(F)ccc1-c1csc(NC(=O)c2ccccc2-c2ccccc2C(=O)O)n1 [PJL-111],–,45%,–,–,66%
CCc1ccc(C(=O)O)c(NS(=O)(=O)c2cnc(-c3ccc(F)cc3)s2)c1 [PJL-122],–,25%,–,–,–
COc1ccccc1-n1cc(S(=O)(=O)Nc2ccc(F)cc2C(=O)O)cn1 [PJL-85],–,15%,111 µM,–,0%
CN(C)c1ncn(-c2cccc(NS(=O)(=O)c3cc(C(=O)O)cc4c3CCC4)c2)n1 [PJL-74],–,26%,22 µM,–,9%
O=C(O)c1ccccc1-c1ccc(O)cc1C(=O)Nc1nc(-c2ccc(Cl)cc2Cl)cs1 [PJL-132],–,51%,4.5 µM,–,–
O=C(O)c1cc(NS(=S)(=S)c2cnc(-c3ccc(F)cc3)s2)c(F)cc1F [PJL-27],–,11%,188 µM,–,25%
O=C(O)c1ccccc1-c1ccccc1C(=O)Nc1cc(-c2ccc(Cl)cc2Cl)c[nH]c1=O [PJL-120],–,14%,115 µM,–,88%
O=C(O)c1cc2c(c(S(=O)(=O)Nc3cccc(C(=O)Nc4ccccn4)c3)c1)CCC2 [PJL-70],–,15%,–,–,0%
CC(C)c1n[nH]c(-c2cccc(NC(=O)Cc3ccccc3C(=O)O)c2)n1 [PJL-96],–,22%,43 µM,–,2%
CC(C)Cc1ccc(-c2csc(NC(=O)c3ccccc3-c3ccccc3C(=O)O)n2)cc1 [PJL-108],–,47%,4.7 µM,–,17%
O=C(O)c1ccccc1-c1cc(O)ccc1C(=O)Nc1nc(-c2ccc(Cl)cc2Cl)cs1 [PJL-130],–,52%,3.4 µM,–,93%
CCc1nnc(-c2ccc(O)c(NC(=O)Cc3ccccc3C(=O)O)c2)o1 [PJL-92],–,13%,122 µM,–,0%
CC(C)c1n[nH]c(-c2ccc(NC(=O)Cc3ccccc3C(=O)O)cc2)n1 [PJL-95],–,27%,22 µM,–,10%
CCn1nnc(-c2ccc(O)c(NC(=O)Cc3ccccc3C(=O)O)c2)n1 [PJL-88],–,10%,80 µM,–,0%
CC(=O)Nc1ccc(C(=O)Nc2nc(-c3ccc(Cl)cc3Cl)cs2)c(-c2ccccc2C(=O)O)c1 [PJL-129],–,43%,11 µM,–,–
COc1ccc(C(=O)O)c(-c2cc(N)ccc2C(=O)Nc2nc(-c3ccc(Cl)cc3Cl)cs2)c1 [PJL-133],–,48%,7.6 µM,–,–
O=C(O)c1ccccc1-c1cc(CO)ccc1C(=O)Nc1nc(-c2ccc(Cl)cc2Cl)cs1 [PJL-131],–,42%,9.3 µM,–,–
COc1ccc(C(=O)O)c(NS(=O)(=O)c2cnn(-c3cccc(C(F)(F)F)c3)c2)c1 [PJL-114],12 µM,17%,41 µM,–,–
COc1ccc(NS(=O)(=O)c2cc(C(=O)O)cc3c2CCC3)cc1Cl [PJL-21],–,14%,149 µM,–,0%

# The next lines start with results.
Kd [1],FP % inhibition [2],IC50 [2],direct binding to AtOASS by ITC (in vitro screening of purchased virtual hits) ([1]; result in words),SMILES,inhibition at 50 µM (Arabidopsis thaliana)
10.1 µM,12%,127 µM,–,O=C(O)c1cc2c(c(S(=O)(=O)Nc3cccc(NC(=O)C4CC4)c3)c1)CCC2 [PJL-39],18%
–,36%,20 µM,–,Cc1ccnc(-n2cc(S(=O)(=O)Nc3ccc(F)cc3C(=O)O)cn2)c1 [PJL-86],0%
–,56%,3.4 µM,–,COc1ccc(-c2csc(NC(=O)c3ccc(C)cc3-c3ccccc3C(=O)O)n2)cc1 [PJL-125],–
–,16%,–,–,COc1cc(NS(=O)(=O)c2cnc(-c3ccc(F)cc3)s2)c(C(=O)O)cc1F [PJL-123],–
–,11%,236 µM,–,Cc1cn(-c2ccccc2)nc1NS(=O)(=O)c1cc(C(=O)O)cc2c1CCC2 [PJL-2],70%
–,18%,54.2 µM,–,O=C(O)c1ccc(Cl)c(S(=O)(=O)Nc2cccc(C(=O)Nc3cccc(C(F)(F)F)c3)c2)c1 [PJS-227],39%
8.12 µM,21%,–,–,O=C(O)c1cc2c(c(S(=O)(=O)Nc3cccc(-c4noc(C5CCCO5)n4)c3)c1)CCC2 (stereo not shown) [PJL-69],–
–,16%,148 µM,–,O=C(O)c1cc(F)ccc1NS(=O)(=O)c1cnn(-c2ccccc2F)c1 [PJL-5],56%
–,52%,8.56 µM,–,O=C(O)c1cc(F)ccc1-c1ccccc1C(=O)Nc1nc(-c2ccc(Cl)cc2Cl)cs1 [PJL-119],100%
–,41%,18.5 µM,–,COc1ccc(-c2csc(NC(=O)c3cccc(C)c3-c3ccccc3C(=O)O)n2)cc1 [PJL-128],–
–,36%,12 µM,–,O=C(O)c1ccccc1-c1cccnc1C(=O)Nc1nc(-c2ccc(Cl)cc2Cl)cs1 [PJL-115],96%
–,19%,58 µM,–,CC(C)(C)NC(=O)c1cccc(NC(=O)c2ccccc2-c2ccccc2C(=O)O)c1 [PJL-59],6%
